The values that follow come from US9371265B2, “Compositions and methods related to inhibitors of JAK kinase” (EP PHARMA, INC., priority 2012, dated 2016).

Data set [1] can be described thus: Oral pharmacokinetics in rats (plasma, LC-MS/MS). It counts as in vivo, Sprague Dawley rats. The note with it: single oral dose of 200 mg/kg. The protocol: FIGS. 9A-9B Pharmacokinetics and efficacy of EP009 in vivo. (A) Sprague Dawley rats were administered EP009 by oral gavage (200 mg/kg) and pharmacokinetics measured by analysis of plasma concentrations at indicated time points. Values represent mean concentrations, while error bars represent the standard deviation (n=5). (B) Therapeutic study of EP009 in SU-DHL-1 model in SCID/NOD mice.
EP009 (200 mg/kg) was administered orally to Sprague Dawley rats (Texas Animal Specialties) of ˜200 g weight (n=5) after an overnight fast. Blood (˜200 μl) was drawn at 0.5, 1, 2, 4, 8 and 24 hours after dosing and plasma was collected and snap-frozen in liquid nitrogen. EP009 plasma concentrations were determined by a liquid chromatography tandem mass spectrometry (LC-MS/MS) system. This system included a HPLC (Shimadzu Scientific Corporation) with an ACE C18 column (50×2.1 mm, 5 um) and an API-4000 (triple-quadruple) mass spectrometer (ABSciex, Inc) with an electrospray ionization source. A positive multiple reaction monitoring (MRM) scan was applied. The mobile phase A and B used in this study were 0.1% formic acid in 5 mM ammonium acetate and 0.1% formic acid in 100% acetonitrile. Plasma samples (50 μL) were mixed with 50 μL of blank plasma and 300 μL of internal standard solution (Verapamil, 20 ng/mL in 100% acetonitrile). After vortexing for 1 min and centrifuging for 5 min at 16,000×g, 300 μL supernatants were analyzed by LC-MS/MS. The limit of quantitation was 1 ng/mL of EP009 in plasma and the calibration range was from 1 to 2000 ng/mL.

A further data set addresses BRAF (Homo sapiens, UniProt P15056). As to the kind of experiment: Kinase panel: BRAF. Format: biochemical. The note with it: 10 μM EP009. The protocol:
Achieving JAK3 selectivity remains a significant challenge in the development of new small molecules for the treatment of cancer and immune-derived diseases. As such, the inventors employed cell-based screening assays of small-molecule libraries based upon the chemical scaffold of the established JAK3 inhibitor NC1153 (Stepkowski et al., J Immunol. (2005), 175(7):4236-4246) EP009 (FIG. 2A) was selected as a lead compound due to improved intrinsic stability (>95% purity in various solvents at 37° C. for 24 hours; FIG. 3) and high-degree of JAK3 selectivity. To test JAK3 versus JAK2 specificity of EP009, the IL-2/JAK3-dependent Kit225, and IL-3/JAK2-dependent BaF/3 cell lines were used. Kit225 and BaF/3 cells growing in the presence of IL-2 or IL-3, respectively, were treated with ascending concentrations of EP009 for 12 hours and cellular JAK3 and JAK2 tyrosine phosphorylation levels detected by Western blot analysis (FIGS. 2B and 2C). Following densitometric analysis, EP009 was determined to dose-dependently reduce IL-2-mediated JAK3 tyrosine phosphorylation with a cellular 50% inhibitory concentration (IC50) between 10 and 20 μM (FIG. 2B). […] To globally evaluate specificity, the inhibitory activity of EP009 was measured against a panel of protein kinases distributed throughout the kinome using the scanEDGE profiling service (KINOMEscan). […]

Values joined by “and” are separate entries in the source; they are usually repeats but may differ in a detail not shown here. Equal entries are not always repeated.

BRAF, sequence (P15056 whole entry): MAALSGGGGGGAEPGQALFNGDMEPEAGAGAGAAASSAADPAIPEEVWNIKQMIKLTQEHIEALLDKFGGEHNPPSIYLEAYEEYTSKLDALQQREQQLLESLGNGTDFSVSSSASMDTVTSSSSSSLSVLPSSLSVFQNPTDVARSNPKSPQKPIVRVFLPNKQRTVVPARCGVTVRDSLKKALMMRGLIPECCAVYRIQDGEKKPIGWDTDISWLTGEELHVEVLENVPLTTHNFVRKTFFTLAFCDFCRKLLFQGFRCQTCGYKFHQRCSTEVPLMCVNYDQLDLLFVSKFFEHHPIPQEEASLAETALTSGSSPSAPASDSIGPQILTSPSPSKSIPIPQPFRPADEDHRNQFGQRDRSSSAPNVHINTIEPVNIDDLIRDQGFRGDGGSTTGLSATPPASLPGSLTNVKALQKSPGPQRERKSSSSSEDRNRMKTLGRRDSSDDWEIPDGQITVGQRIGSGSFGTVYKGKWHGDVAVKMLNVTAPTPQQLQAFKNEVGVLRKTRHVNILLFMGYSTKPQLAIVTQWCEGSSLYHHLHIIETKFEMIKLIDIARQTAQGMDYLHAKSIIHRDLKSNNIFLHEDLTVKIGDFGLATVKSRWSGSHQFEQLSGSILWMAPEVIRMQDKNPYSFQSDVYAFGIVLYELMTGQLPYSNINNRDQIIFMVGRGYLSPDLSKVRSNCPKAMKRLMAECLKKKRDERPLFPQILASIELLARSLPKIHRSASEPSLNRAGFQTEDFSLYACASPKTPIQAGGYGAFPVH

Take `C=C1CCCCCCCCCC(CO)C1=O` (centres unmarked) [EP009, 2-(Hydroxymethyl)-12-methylenecyclododecanone]: the AUC(0-t) in data set [1] (Sprague Dawley, rat, plasma, read-out: area under the concentration-time curve (AUC-t)) is 2110 ng·h/mL and 6.1 µM·h. For the same molecule, in data set [1] (Sprague Dawley, rat, plasma, read-out: half-life (t1/2) (converted)), the half-life is 1 h. In addition, in data set [1] (Sprague Dawley, rat, plasma, read-out: peak plasma concentration (Cmax)), the Cmax was 2000 ng/mL and 5.74 µM. In addition, the “plasma levels eight hours after dosing” value in data set [1] is reported as “declined to the limit of detection”. Further, the “Kinase Activity (% of Control)” value at BRAF is on record as 72 % of Control.
